Assay [1] has as its target Glutamate receptor ionotropic, NMDA 2B (Homo sapiens, UniProt Q05586+Q13224). The assay is described as follows: Displacement of [3H]ifenprodil from human GluN2B expressed in mouse L(tk-) cells co-expressing GluN1a after 120 mins by scintillation counting method. The format is cell-based.
The next assay is filed under the species Cavia porcellus. In words: Displacement of [3H]-(+)-MK-801 from N-methyl D-aspartate receptor phencyclidine binding site in guinea pig brain cortex membranes at 1 uM after 150 mins by scintillation counting method. The class given is cell membranes.
The target of assay [2] is Sigma non-opioid intracellular receptor 1 (Cavia porcellus, UniProt Q60492). The assay is described as follows: Displacement of [3H](+)-pentazocine from sigma1 receptor in guinea pig brain membranes after 180 mins by scintillation counting method. The class given is cell membranes, Membrane.
Sequence of Sigma non-opioid intracellular receptor 1 (Q60492 whole entry): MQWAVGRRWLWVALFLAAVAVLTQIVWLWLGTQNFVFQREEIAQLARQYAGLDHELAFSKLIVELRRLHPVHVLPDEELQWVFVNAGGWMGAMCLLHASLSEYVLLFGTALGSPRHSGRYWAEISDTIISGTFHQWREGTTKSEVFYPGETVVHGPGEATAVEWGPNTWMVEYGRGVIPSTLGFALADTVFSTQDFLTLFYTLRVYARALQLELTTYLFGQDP
Assay [3] is described as follows: Displacement of [3H]DTG from sigma2 receptor in rat liver membranes after 180 mins by scintillation counting method. The class given is cell membranes, Membrane.

Sequence of Glutamate receptor ionotropic, NMDA 2B (Q13224 whole entry, one chain of several): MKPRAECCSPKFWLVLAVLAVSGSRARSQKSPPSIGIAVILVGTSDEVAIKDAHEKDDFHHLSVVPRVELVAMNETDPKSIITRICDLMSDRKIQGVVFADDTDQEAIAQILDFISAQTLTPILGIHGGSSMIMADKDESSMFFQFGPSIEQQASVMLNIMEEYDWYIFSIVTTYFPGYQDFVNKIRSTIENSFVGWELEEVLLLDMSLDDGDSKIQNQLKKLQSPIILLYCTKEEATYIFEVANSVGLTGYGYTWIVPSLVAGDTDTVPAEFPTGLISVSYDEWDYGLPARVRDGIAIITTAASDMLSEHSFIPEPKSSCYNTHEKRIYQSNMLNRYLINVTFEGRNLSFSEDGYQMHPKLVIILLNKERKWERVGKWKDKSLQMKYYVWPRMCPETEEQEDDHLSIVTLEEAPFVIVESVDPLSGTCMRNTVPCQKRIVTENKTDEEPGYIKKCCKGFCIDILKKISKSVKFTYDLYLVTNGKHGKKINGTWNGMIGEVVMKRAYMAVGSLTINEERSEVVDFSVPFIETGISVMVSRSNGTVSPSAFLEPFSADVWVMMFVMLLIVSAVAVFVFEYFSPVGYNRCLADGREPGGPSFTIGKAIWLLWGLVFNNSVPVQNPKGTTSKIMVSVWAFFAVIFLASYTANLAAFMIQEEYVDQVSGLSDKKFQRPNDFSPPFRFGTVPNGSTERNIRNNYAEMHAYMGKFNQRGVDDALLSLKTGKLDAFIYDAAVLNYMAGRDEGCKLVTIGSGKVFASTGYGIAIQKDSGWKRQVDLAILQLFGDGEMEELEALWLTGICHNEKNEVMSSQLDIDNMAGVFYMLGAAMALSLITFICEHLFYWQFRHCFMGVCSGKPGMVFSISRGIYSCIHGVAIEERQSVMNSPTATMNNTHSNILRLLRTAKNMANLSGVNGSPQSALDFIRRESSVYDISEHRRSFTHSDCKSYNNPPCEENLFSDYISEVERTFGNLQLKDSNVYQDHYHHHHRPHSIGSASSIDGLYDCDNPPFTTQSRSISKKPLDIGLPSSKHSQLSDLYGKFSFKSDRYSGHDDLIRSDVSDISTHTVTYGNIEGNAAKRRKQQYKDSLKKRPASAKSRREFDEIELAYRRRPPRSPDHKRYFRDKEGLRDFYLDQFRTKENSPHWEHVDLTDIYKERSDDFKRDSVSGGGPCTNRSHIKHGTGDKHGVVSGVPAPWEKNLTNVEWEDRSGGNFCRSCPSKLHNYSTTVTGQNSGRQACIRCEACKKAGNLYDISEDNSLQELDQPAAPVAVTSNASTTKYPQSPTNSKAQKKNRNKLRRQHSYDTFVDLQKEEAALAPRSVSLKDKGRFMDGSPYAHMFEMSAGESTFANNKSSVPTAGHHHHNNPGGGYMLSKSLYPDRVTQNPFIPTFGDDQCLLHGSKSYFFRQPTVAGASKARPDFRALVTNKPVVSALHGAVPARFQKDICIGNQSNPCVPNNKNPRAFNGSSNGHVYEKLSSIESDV

A word on the Ki: it is a dissociation constant, usually derived from enzyme kinetics or from competition with a known ligand. What is called inhibition is the change of the read-out against control, counted positive when it falls. On to `c1ccc(CNC2CCc3ccccc3CC2)cc1`, for which the Ki in assay [1] amounted to 57 nM; in assay [2] it was 107 nM; in assay [3], 203 nM. In the assay listed under Cavia porcellus, this compound yielded an inhibition of 16%.

On to `c1ccc(CCCCNC2CCc3ccccc3CC2)cc1`, for which the Ki in assay [1] came out at 17 nM; in assay [2] it was 216 nM; in assay [3] it was 55 nM. The same compound displayed an inhibition in the assay listed under Cavia porcellus of 2%.

Take `COc1ccc2c(c1)CCC(NCCCc1ccccc1)CC2` (stereo unspecified): the Ki in assay [1] was 10 nM; in assay [2] it was 27 nM; in assay [3] it was 15 nM. The same compound displayed an inhibition in the assay listed under Cavia porcellus of 0%.

`c1ccc([C@H]2CC[C@H](NC3CCc4ccccc4CC3)CC2)cc1`: the inhibition constant (Ki) in assay [1] stood at 5.7 nM; in assay [2], 20 nM; in assay [3], 14 nM. The compound further yielded an inhibition in the assay filed under Cavia porcellus of 30%.

`c1ccc(C2CCN(C3CCc4ccccc4CC3)CC2)cc1`: the Ki is 6.9 nM in assay [1], 22 nM in assay [2] and 18 nM in assay [3]. In the assay listed under Cavia porcellus, this compound yielded an inhibition of 11%.

For `c1ccc(CCNC2CCc3ccccc3CC2)cc1`, the Ki stood at 20 nM in assay [1], 22 nM in assay [2] and 198 nM in assay [3]. This compound gave an inhibition in the assay filed under Cavia porcellus of 0%.

Turning to `c1ccc(N2CCN(C3CCc4ccccc4CC3)CC2)cc1`, the Ki was determined as 12 nM in assay [1], 182 nM in assay [2] and 200 nM in assay [3]. The inhibition in the assay filed under Cavia porcellus was found to be 5%.

Consider `COc1ccc2c(c1)CCN(CCCCc1ccccc1)CC2O` (stereo unspecified), for which the inhibition in the assay filed under Cavia porcellus came to 22%. In assay [3], this compound displayed a Ki of 554 nM.

For `c1ccc(CCCNC2CCc3ccccc3CC2)cc1`, the Ki in assay [1] was determined as 16 nM; in assay [2], 150 nM; in assay [3] it was 27 nM. Also, in the assay listed under Cavia porcellus, the inhibition came out at 0%.

With `c1ccc(CC2CCN(C3CCc4ccccc4CC3)CC2)cc1`, the Ki in assay [1] was 2.9 nM; in assay [2], 5.7 nM; in assay [3] it was 5.4 nM. The compound also had an inhibition in the assay filed under Cavia porcellus of 30%.

As for `c1ccc([C@H]2CC[C@@H](NC3CCc4ccccc4CC3)CC2)cc1`, the figures for the Ki in assay [1], in assay [2] and in assay [3] were 2.3 nM, 14 nM and 3 nM, respectively. In addition, in the assay listed under Cavia porcellus, the inhibition amounted to 43%.

As for `COc1ccc2c(c1)CCC(NCCCc1ccccc1)CC2O` (stereo unspecified), the Ki in assay [1] came out at 16 nM; in assay [2] it was 132 nM; in assay [3], 9.2 nM. This compound also gave an inhibition in the assay filed under Cavia porcellus of 12%.

Values taken from ChEMBL document CHEMBL3351700, “Synthesis, GluN2B affinity and selectivity of benzo[7]annulen-7-amines” (Bioorg Med Chem, 2014).
